In patent EP3072956A1, “Selective culture medium for polymyxin-resistant, gram-negative bacteria” (priority 2015, dated 2016):

Columns and labels:
Assay in all cases: MIC determination by broth microdilution (MHB-CA, CLSI)
Format in all cases: cell-based
K. oxytoca = conditions: strain C24
Procedure: (§1) Determination of MIC values were performed by broth microdilution in Cation-Adjusted Mueller-Hinton broth (MHB-CA) according to the CLSI guidelines (Clinical and Laboratory Standards Institute). Polymyxin B and colistin (Sigma-Aldrich, Saint-Louis) were tested with or without Tween 80 over a range dilution from 0.12 to 128 µg/ml. The surfactant Tween 80, at a final concentration of 0.002%, prevents the binding of polymyxins to multi-array plastic panel. Actually, the use of Tween for determination of MIC of polymyxins is still debatable. MHB-CA broth and 5.10^5 CFU/ml of each tested strain were distributed in each well. Following the EUCAST breakpoints, strains were characterized as susceptible or resistant to polymyxins.

S. marcescens = conditions: strain Smar
Procedure: as §1

H. alvei = conditions: strain ER
Procedure: as §1

B. cepacia = conditions: strain Bcep
Procedure: as §1

E. aerogenes = conditions: strain 36F8
Procedure: as §1

E. coli = test system: E. coli
Procedure: as §1

M. morganii = conditions: strain Mmor
Procedure: as §1

P. vulgaris = conditions: strain Pvul
Procedure: as §1

E. cloacae = test system: E. cloacae
Procedure: as §1

C. freundii = test system: C. freundii
Procedure: as §1

P. mirabilis = conditions: strain Pmir
Procedure: as §1

P. stuartii = conditions: strain Pstu
Procedure: as §1

P. aeruginosa = test system: P. aeruginosa
Procedure: as §1

K. pneumoniae = test system: K. pneumoniae
Procedure: as §1

**Q.** What does the source list for colistin?
**A.** MIC (K. oxytoca; With Tween80): 64 µg/mL; MIC (K. oxytoca; Without Tween80): 64 µg/mL; MIC (S. marcescens; With Tween80): >128 µg/mL; MIC (S. marcescens; Without Tween80): >128 µg/mL; MIC (H. alvei; With Tween80): 16 µg/mL; MIC (H. alvei; Without Tween80): 16 µg/mL; MIC (B. cepacia; With Tween80): >128 µg/mL; MIC (B. cepacia; Without Tween80): >128 µg/mL; MIC (E. aerogenes; With Tween80): 0.12 µg/mL; MIC (E. aerogenes; Without Tween80): 0.12 µg/mL; MIC (E. coli; strain 36A6, With Tween80): 0.12 µg/mL; MIC (E. coli; strain 36A6, Without Tween80): 0.12 µg/mL; MIC (E. coli; strain 36D7, With Tween80): 0.12 µg/mL; MIC (E. coli; strain 36D7, Without Tween80): 0.25 µg/mL; MIC (E. coli; strain 38D6, With Tween80): 0.12 µg/mL; MIC (E. coli; strain 38D6, Without Tween80): 0.25 µg/mL; MIC (E. coli; strain 27563, With Tween80): 8 µg/mL; MIC (E. coli; strain 27563, Without Tween80): 16 µg/mL; MIC (E. coli; strain 27837, With Tween80): 8 µg/mL; MIC (E. coli; strain 27837, Without Tween80): 16 µg/mL; MIC (E. coli; strain 27850, With Tween80): 8 µg/mL; MIC (E. coli; strain 27850, Without Tween80): 16 µg/mL; MIC (E. coli; strain 27852, With Tween80): 8 µg/mL; MIC (E. coli; strain 27852, Without Tween80): 8 µg/mL; MIC (E. coli; strain 28509, With Tween80): 4 µg/mL; MIC (E. coli; strain 28509, Without Tween80): 4 µg/mL; MIC (E. coli; strain 30742, With Tween80): 4 µg/mL; MIC (E. coli; strain 30742, Without Tween80): 8 µg/mL; MIC (E. coli; strain ATCC 25922, With Tween80): 0.12 µg/mL; MIC (E. coli; strain ATCC 25922, Without Tween80): 0.25 µg/mL; MIC (E. coli; strain C140, With Tween80): 0.12 µg/mL; MIC (E. coli; strain C140, Without Tween80): 0.12 µg/mL; MIC (E. coli; strain Eco OmpC-OmpF-, With Tween80): 0.12 µg/mL; MIC (E. coli; strain Eco OmpC-OmpF-, Without Tween80): 0.12 µg/mL; MIC (M. morganii; With Tween80): >128 µg/mL; MIC (M. morganii; Without Tween80): >128 µg/mL; MIC (P. vulgaris; With Tween80): >128 µg/mL; MIC (P. vulgaris; Without Tween80): >128 µg/mL; MIC (E. cloacae; strain 38A10, With Tween80): 0.12 µg/mL; MIC (E. cloacae; strain 38A10, Without Tween80): 0.12 µg/mL; MIC (E. cloacae; strain C28, With Tween80): 32 µg/mL; MIC (E. cloacae; strain C28, Without Tween80): 32 µg/mL; MIC (E. cloacae; strain C129, With Tween80): 0.12 µg/mL; MIC (E. cloacae; strain C129, Without Tween80): 0.12 µg/mL; MIC (E. cloacae; strain C144, With Tween80): 0.12 µg/mL; MIC (E. cloacae; strain C144, Without Tween80): 0.12 µg/mL; MIC (E. cloacae; strain HM, With Tween80): >128 µg/mL; MIC (E. cloacae; strain HM, Without Tween80): >128 µg/mL; MIC (C. freundii; strain 38B2, With Tween80): 0.12 µg/mL; MIC (C. freundii; strain 38B2, Without Tween80): 0.12 µg/mL; MIC (C. freundii; strain C136, With Tween80): 0.12 µg/mL; MIC (C. freundii; strain C136, Without Tween80): 0.25 µg/mL; MIC (P. mirabilis; With Tween80): >128 µg/mL; MIC (P. mirabilis; Without Tween80): >128 µg/mL; MIC (P. stuartii; With Tween80): >128 µg/mL; MIC (P. stuartii; Without Tween80): >128 µg/mL; MIC (P. aeruginosa; strain 38J8, With Tween80): 0.5 µg/mL; MIC (P. aeruginosa; strain 38J8, Without Tween80): 2 µg/mL; MIC (P. aeruginosa; strain ATCC 27853, With Tween80): 0.12 µg/mL; MIC (P. aeruginosa; strain ATCC 27853, Without Tween80): 0.5 µg/mL; MIC (P. aeruginosa; strain C111, With Tween80): 0.12 µg/mL; MIC (P. aeruginosa; strain C111, Without Tween80): 1 µg/mL; MIC (P. aeruginosa; strain C131, With Tween80): 0.25 µg/mL; MIC (P. aeruginosa; strain C131, Without Tween80): 1 µg/mL; MIC (P. aeruginosa; strain C133, With Tween80): 0.5 µg/mL; MIC (P. aeruginosa; strain C133, Without Tween80): 2 µg/mL; MIC (K. pneumoniae; strain 12E2, With Tween80): 64 µg/mL; MIC (K. pneumoniae; strain 12E2, Without Tween80): 64 µg/mL; MIC (K. pneumoniae; strain 13G2, With Tween80): 32 µg/mL; MIC (K. pneumoniae; strain 13G2, Without Tween80): 64 µg/mL; MIC (K. pneumoniae; strain 18J1, With Tween80): 32 µg/mL; MIC (K. pneumoniae; strain 18J1, Without Tween80): 32 µg/mL; MIC (K. pneumoniae; strain 36A4, With Tween80): 0.12 µg/mL; MIC (K. pneumoniae; strain 36A4, Without Tween80): 0.12 µg/mL; MIC (K. pneumoniae; strain 36A5, With Tween80): 0.12 µg/mL; MIC (K. pneumoniae; strain 36A5, Without Tween80): 0.12 µg/mL; MIC (K. pneumoniae; strain 36A7, With Tween80): 0.12 µg/mL; MIC (K. pneumoniae; strain 36A7, Without Tween80): 0.25 µg/mL; MIC (K. pneumoniae; strain 38B7, With Tween80): 0.12 µg/mL; MIC (K. pneumoniae; strain 38B7, Without Tween80): 0.5 µg/mL; MIC (K. pneumoniae; strain 75b, With Tween80): 128 µg/mL; MIC (K. pneumoniae; strain 75b, Without Tween80): 128 µg/mL; MIC (K. pneumoniae; strain 1118, With Tween80): 64 µg/mL; MIC (K. pneumoniae; strain 1118, Without Tween80): 64 µg/mL; MIC (K. pneumoniae; strain 1515, With Tween80): 32 µg/mL; MIC (K. pneumoniae; strain 1515, Without Tween80): 64 µg/mL; MIC (K. pneumoniae; strain AF1b, With Tween80): 16 µg/mL; MIC (K. pneumoniae; strain AF1b, Without Tween80): 16 µg/mL; MIC (K. pneumoniae; strain BICb, With Tween80): >128 µg/mL; MIC (K. pneumoniae; strain BICb, Without Tween80): >128 µg/mL; MIC (K. pneumoniae; strain C1, With Tween80): 128 µg/mL; MIC (K. pneumoniae; strain C1, Without Tween80): 128 µg/mL; MIC (K. pneumoniae; strain C3, With Tween80): 32 µg/mL; MIC (K. pneumoniae; strain C3, Without Tween80): 32 µg/mL; MIC (K. pneumoniae; strain C7, With Tween80): >128 µg/mL; MIC (K. pneumoniae; strain C7, Without Tween80): >128 µg/mL; MIC (K. pneumoniae; strain C11, With Tween80): 128 µg/mL; MIC (K. pneumoniae; strain C11, Without Tween80): 64 µg/mL; MIC (K. pneumoniae; strain C12, With Tween80): 64 µg/mL; MIC (K. pneumoniae; strain C12, Without Tween80): 64 µg/mL; MIC (K. pneumoniae; strain C16, With Tween80): 64 µg/mL; MIC (K. pneumoniae; strain C16, Without Tween80): 64 µg/mL; MIC (K. pneumoniae; strain C21, With Tween80): 128 µg/mL; MIC (K. pneumoniae; strain C21, Without Tween80): 128 µg/mL; MIC (K. pneumoniae; strain C22, With Tween80): 64 µg/mL; MIC (K. pneumoniae; strain C22, Without Tween80): 32 µg/mL; MIC (K. pneumoniae; strain C25, With Tween80): 32 µg/mL; MIC (K. pneumoniae; strain C25, Without Tween80): 64 µg/mL; MIC (K. pneumoniae; strain C26, With Tween80): 128 µg/mL; MIC (K. pneumoniae; strain C26, Without Tween80): 128 µg/mL; MIC (K. pneumoniae; strain C27, With Tween80): >128 µg/mL; MIC (K. pneumoniae; strain C27, Without Tween80): >128 µg/mL; MIC (K. pneumoniae; strain C112, With Tween80): 0.12 µg/mL; MIC (K. pneumoniae; strain C112, Without Tween80): 0.5 µg/mL; MIC (K. pneumoniae; strain C115, With Tween80): 0.12 µg/mL; MIC (K. pneumoniae; strain C115, Without Tween80): 0.12 µg/mL; MIC (K. pneumoniae; strain C130, With Tween80): 0.12 µg/mL; MIC (K. pneumoniae; strain C130, Without Tween80): 0.5 µg/mL; MIC (K. pneumoniae; strain C132, With Tween80): 0.12 µg/mL; MIC (K. pneumoniae; strain C132, Without Tween80): 0.12 µg/mL; MIC (K. pneumoniae; strain Kp OmpK3 5-OmpK3 6-, With Tween80): 0.12 µg/mL; MIC (K. pneumoniae; strain Kp OmpK3 5-OmpK3 6-, Without Tween80): 0.12 µg/mL; MIC (K. pneumoniae; strain Sa, With Tween80): >128 µg/mL; MIC (K. pneumoniae; strain Sa, Without Tween80): 128 µg/mL; MIC (K. pneumoniae; strain T1b, With Tween80): 128 µg/mL; MIC (K. pneumoniae; strain T1b, Without Tween80): 128 µg/mL; MIC (K. pneumoniae; strain T4, With Tween80): 64 µg/mL; MIC (K. pneumoniae; strain T4, Without Tween80): 64 µg/mL; MIC (K. pneumoniae; strain T5, With Tween80): 64 µg/mL; MIC (K. pneumoniae; strain T5, Without Tween80): 32 µg/mL
